# Laboratory results: ChEMBL document CHEMBL4507319 (2021)
# Activity calls are given as the source filed them. The rule behind the calls is not given here.
# Assays:
# [1] = target: Protein kinase C theta type (Homo sapiens) (UniProt Q04759); details: Compound concentration 1000.0 nM
# [2] = target: Insulin-like growth factor 1 receptor (Homo sapiens) (UniProt P08069); assay: IGF-1R(h), activated Eurofins kinase panel; details: Compound concentration 1.0 uM
# [3] = target: T1, Tyrosine-protein kinase Tec (Homo sapiens) (UniProt P42680); assay: Tec(h) activated Eurofins kinase panel; details: Compound concentration 1.0 uM
# T1 sequence (whole entry): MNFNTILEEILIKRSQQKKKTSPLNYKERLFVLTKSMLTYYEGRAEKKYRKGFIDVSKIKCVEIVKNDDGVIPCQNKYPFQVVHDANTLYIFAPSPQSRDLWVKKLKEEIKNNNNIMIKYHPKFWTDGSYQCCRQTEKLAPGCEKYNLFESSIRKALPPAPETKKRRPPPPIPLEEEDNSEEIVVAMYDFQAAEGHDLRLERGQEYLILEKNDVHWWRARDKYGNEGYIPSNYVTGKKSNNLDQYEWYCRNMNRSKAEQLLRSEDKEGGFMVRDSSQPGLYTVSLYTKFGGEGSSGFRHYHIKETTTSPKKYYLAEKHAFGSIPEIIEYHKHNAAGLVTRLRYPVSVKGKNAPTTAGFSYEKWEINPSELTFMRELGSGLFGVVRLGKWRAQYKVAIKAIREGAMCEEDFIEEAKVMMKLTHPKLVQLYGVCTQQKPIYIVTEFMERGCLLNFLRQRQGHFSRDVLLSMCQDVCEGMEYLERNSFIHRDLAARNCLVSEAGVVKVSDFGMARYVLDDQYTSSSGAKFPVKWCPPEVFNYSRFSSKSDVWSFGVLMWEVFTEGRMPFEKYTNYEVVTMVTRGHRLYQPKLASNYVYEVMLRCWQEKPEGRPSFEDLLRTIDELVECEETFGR
# [4] = target: Serine/threonine-protein kinase N1 (Homo sapiens) (UniProt Q16512); assay: PRK1(h) Eurofins kinase panel; details: Compound concentration 1.0 uM
# [5] = target: Serine/threonine-protein kinase PAK 3 (Homo sapiens) (UniProt O75914); assay: PAK3(h) Eurofins kinase panel; details: Compound concentration 1.0 uM
# [6] = target: T2, Ephrin type-A receptor 8 (Homo sapiens) (UniProt P29322); assay: EphA8(h) Eurofins kinase panel; details: Compound concentration 1.0 uM
# T2 sequence (whole entry): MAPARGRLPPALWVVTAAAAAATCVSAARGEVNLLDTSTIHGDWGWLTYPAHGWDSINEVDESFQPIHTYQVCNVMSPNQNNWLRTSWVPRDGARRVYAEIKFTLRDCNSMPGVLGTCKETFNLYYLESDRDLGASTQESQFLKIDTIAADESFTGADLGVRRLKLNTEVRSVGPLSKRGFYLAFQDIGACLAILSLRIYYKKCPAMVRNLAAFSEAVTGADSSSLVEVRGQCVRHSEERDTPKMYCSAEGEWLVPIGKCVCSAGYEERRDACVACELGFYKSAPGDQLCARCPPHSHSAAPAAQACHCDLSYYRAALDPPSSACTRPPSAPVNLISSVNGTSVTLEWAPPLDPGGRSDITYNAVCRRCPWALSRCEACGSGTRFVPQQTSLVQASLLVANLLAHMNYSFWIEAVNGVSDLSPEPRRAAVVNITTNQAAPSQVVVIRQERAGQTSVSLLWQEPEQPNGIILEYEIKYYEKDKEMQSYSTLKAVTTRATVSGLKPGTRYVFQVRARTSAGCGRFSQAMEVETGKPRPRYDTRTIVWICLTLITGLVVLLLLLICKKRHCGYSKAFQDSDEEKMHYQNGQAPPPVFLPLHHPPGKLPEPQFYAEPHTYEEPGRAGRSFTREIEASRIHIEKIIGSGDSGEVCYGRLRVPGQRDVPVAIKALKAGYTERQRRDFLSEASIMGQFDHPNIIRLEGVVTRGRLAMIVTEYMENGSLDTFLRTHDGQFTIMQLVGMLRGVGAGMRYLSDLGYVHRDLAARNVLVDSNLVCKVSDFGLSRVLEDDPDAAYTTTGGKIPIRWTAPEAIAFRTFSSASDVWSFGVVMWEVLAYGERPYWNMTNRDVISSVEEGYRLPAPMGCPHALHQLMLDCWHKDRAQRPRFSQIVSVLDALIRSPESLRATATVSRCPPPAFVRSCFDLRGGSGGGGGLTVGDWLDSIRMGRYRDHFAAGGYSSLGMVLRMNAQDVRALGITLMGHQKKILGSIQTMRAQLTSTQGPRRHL
# [7] = target: T3, G protein-coupled receptor kinase 3 (Homo sapiens) (UniProt P35626); assay: GRK3(h) Eurofins kinase panel; details: Compound concentration 1.0 uM
# T3 sequence (whole entry): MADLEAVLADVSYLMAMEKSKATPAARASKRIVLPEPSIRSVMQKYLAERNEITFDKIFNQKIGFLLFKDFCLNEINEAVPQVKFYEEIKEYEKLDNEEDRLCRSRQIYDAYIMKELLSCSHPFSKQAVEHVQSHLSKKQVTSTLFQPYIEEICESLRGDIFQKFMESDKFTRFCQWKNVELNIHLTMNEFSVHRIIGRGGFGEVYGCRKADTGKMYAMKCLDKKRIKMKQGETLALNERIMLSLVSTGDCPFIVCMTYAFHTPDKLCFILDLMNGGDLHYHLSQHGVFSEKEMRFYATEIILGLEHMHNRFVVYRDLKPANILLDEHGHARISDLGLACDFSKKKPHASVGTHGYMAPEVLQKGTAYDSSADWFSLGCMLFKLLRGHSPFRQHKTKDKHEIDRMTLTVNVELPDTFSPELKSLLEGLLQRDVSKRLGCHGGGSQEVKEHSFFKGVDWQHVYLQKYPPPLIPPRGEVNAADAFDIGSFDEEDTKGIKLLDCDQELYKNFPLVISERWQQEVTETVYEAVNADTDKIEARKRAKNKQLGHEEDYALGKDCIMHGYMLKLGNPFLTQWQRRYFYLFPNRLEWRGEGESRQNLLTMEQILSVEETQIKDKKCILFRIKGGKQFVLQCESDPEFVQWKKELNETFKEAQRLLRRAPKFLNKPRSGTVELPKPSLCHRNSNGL
# [8] = target: 5'-AMP-activated protein kinase catalytic subunit alpha-1 (Homo sapiens, UniProt Q13131); assay: Eurofins kinase panel (PRKAA1); set-up: compound concentration 1 uM
# Sequence of 5'-AMP-activated protein kinase catalytic subunit alpha-1 (Q13131 whole entry): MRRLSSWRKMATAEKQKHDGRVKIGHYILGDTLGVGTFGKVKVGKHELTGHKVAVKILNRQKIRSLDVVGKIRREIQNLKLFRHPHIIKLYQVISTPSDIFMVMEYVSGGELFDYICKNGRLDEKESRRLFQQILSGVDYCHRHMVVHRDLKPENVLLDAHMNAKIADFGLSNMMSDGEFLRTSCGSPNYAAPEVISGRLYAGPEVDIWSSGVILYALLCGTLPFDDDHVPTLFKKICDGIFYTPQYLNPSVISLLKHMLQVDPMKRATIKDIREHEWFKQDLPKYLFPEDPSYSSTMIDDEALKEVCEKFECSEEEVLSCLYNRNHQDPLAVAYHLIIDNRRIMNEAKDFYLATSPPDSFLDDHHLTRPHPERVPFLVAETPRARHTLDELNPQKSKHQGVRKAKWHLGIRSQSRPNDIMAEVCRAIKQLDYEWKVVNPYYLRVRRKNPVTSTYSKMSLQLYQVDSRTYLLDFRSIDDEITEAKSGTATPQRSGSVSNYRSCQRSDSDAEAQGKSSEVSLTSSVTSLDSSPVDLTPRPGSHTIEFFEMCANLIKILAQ
# Sequence of Serine/threonine-protein kinase PAK 3 (Homo sapiens) (O75914 whole entry, looked up): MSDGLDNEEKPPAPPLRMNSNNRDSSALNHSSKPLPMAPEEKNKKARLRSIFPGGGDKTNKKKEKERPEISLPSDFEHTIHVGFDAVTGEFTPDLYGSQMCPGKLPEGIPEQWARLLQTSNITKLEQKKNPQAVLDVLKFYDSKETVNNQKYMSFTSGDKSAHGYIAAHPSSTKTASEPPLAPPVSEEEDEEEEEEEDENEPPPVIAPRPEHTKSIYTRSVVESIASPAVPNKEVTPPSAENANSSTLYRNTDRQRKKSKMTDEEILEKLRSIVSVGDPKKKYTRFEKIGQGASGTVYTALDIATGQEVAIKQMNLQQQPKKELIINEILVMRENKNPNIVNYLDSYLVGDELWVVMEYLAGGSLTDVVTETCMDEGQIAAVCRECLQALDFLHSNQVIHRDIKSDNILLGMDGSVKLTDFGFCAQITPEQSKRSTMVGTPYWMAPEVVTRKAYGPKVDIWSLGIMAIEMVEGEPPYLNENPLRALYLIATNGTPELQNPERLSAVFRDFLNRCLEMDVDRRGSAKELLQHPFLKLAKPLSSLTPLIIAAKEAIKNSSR
# Sequence of Serine/threonine-protein kinase N1 (Homo sapiens) (Q16512 2-942 limits assumed): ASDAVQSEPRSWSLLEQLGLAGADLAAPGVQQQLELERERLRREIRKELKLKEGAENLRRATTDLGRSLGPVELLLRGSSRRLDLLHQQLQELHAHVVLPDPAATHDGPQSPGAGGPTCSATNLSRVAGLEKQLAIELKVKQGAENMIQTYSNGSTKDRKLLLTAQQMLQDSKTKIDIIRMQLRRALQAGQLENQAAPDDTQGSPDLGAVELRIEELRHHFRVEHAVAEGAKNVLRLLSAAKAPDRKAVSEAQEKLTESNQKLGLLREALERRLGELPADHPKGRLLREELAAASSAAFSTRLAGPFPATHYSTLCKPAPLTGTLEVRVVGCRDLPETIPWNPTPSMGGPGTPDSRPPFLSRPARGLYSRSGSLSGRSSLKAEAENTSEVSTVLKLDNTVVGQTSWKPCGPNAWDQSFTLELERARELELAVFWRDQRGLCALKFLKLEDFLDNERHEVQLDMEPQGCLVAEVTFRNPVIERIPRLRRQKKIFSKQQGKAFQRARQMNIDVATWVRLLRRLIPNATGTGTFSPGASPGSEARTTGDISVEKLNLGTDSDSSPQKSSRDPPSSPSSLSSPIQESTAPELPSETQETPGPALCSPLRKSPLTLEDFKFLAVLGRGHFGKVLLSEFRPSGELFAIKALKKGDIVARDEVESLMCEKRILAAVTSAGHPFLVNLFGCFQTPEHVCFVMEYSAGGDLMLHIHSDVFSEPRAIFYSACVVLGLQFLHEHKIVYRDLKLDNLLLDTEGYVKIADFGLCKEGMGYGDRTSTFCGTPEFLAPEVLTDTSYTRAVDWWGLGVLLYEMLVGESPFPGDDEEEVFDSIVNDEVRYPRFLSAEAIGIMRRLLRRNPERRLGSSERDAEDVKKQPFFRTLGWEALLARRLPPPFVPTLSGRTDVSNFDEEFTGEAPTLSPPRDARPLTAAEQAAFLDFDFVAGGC
# Sequence of Insulin-like growth factor 1 receptor (Homo sapiens) (P08069 31-736 limits assumed): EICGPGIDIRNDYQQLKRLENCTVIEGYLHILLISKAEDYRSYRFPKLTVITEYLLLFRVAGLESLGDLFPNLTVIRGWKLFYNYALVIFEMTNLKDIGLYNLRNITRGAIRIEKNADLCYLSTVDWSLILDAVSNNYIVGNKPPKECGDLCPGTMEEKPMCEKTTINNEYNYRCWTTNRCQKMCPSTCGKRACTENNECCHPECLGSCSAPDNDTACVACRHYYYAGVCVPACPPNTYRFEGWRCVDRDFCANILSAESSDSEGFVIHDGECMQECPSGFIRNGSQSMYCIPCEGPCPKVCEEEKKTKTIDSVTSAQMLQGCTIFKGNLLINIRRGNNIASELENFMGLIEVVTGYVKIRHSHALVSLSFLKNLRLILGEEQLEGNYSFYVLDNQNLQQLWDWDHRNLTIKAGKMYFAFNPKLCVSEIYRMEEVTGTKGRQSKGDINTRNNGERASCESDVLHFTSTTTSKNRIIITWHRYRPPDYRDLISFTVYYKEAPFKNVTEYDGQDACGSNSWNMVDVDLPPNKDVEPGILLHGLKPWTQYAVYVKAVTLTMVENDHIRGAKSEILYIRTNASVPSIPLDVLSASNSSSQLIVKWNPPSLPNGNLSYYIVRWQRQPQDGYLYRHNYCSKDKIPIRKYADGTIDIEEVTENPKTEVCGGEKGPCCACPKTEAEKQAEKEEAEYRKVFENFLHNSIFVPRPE
# Sequence of Insulin-like growth factor 1 receptor (Homo sapiens) (P08069 741-1367 limits assumed): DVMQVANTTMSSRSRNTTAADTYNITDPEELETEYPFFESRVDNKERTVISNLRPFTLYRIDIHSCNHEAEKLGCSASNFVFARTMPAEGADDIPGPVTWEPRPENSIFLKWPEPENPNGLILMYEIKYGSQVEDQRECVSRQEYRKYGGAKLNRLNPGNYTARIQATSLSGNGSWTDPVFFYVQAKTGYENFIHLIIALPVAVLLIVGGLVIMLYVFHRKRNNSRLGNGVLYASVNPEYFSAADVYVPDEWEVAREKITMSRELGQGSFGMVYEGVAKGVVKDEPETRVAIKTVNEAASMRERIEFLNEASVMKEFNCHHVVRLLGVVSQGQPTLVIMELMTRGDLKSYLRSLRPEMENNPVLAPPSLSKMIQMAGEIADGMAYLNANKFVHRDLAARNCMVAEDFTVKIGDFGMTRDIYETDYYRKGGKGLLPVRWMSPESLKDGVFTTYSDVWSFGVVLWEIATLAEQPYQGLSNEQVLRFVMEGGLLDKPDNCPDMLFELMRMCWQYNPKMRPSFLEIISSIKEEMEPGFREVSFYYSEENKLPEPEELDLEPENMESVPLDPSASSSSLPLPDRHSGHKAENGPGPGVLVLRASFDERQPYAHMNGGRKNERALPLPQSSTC
# Sequence of Protein kinase C theta type (Homo sapiens) (Q04759 whole entry, looked up): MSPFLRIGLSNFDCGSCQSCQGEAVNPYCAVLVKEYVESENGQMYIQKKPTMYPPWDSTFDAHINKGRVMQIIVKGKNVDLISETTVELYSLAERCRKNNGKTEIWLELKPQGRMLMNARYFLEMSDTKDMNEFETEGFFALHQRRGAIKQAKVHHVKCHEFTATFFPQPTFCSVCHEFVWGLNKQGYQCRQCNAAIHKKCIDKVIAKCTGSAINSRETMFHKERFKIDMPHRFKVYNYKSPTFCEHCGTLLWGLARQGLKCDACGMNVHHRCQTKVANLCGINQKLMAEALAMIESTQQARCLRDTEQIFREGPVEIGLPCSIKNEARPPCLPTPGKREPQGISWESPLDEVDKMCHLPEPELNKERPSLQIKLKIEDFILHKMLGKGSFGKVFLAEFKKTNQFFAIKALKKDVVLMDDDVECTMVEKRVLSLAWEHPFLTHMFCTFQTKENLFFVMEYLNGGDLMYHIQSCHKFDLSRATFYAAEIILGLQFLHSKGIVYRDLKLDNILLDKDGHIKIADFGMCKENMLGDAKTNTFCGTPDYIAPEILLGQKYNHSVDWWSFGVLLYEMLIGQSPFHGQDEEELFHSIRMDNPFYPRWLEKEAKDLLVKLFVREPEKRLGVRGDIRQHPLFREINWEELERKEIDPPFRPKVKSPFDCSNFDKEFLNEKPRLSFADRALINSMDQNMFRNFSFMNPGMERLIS
SMILES,residual activity [1],% residual kinase activity [2],% residual kinase activity [3],% residual kinase activity [4],% residual kinase activity [5],% residual kinase activity [6],% residual kinase activity [7],IC50 [8]
CC1=C(C#N)C(c2ccc3c(c2)c(NC(=O)c2ccccc2C)nn3C)C(C#N)=C(C)N1 [BAY-974],55%,,,,,,,
CCc1ccccc1C(=O)Nc1n[nH]c2c(C)c(F)c(C3C(C#N)=C(C)N(C)C(C)=C3C#N)cc12 [BAY-3827],,121%,100%,74%,100%,102%,106%,7 nM (active)
